Data: ChEMBL document CHEMBL3232866, “Design of novel potent antihyperlipidemic agents with antioxidant/anti-inflammatory properties: exploiting phenothiazine's strong antioxidant activity” (J Med Chem, 2014)
pIC50: −log10 of the molar value. Activity calls are given as the source filed them. The rule behind the calls is not given here.

Tests used:
[1] = Antioxidant activity in rat liver microsome membrane assessed as inhibition of lipid peroxidation after 45 mins by TBARS-based spectrophotometric assay; format: functional, microsomes
[2] = tested on: Radical scavenging activity; experiment: Antioxidant activity assessed as DPPH radical scavenging activity up to 50 uM measured within 15 mins; format: functional
[3] = tested on: Radical scavenging activity; experiment: Antioxidant activity assessed as DPPH radical scavenging activity after 30 mins; format: functional
Homo sapiens [4] = species on record: Homo sapiens; experiment: Antioxidant activity against CuSO4-induced human LDL oxidation assessed as prolongation of lag time by spectrophotometric analysis; format: functional
Homo sapiens [5] = species on record: Homo sapiens; experiment: Antioxidant activity against CuSO4-induced human LDL oxidation assessed as inhibition of rate of conjugate diene formation at 1 uM by spectrophotometric analysis; format: functional
Homo sapiens [6] = species on record: Homo sapiens; experiment: Antioxidant activity against CuSO4-induced human LDL oxidation assessed as lag time at 0.10 uM by spectrophotometric analysis (reference value: 122 mins); format: functional
Homo sapiens [7] = species on record: Homo sapiens; experiment: Antioxidant activity against CuSO4-induced human LDL oxidation assessed as lag time at 0.50 uM by spectrophotometric analysis (reference value: 122 mins); format: functional
Homo sapiens [8] = species on record: Homo sapiens; experiment: Antioxidant activity against CuSO4-induced human LDL oxidation assessed as delta-lag time at 0.50 uM by spectrophotometric analysis; format: functional
Homo sapiens [9] = species on record: Homo sapiens; experiment: Antioxidant activity against CuSO4-induced human LDL oxidation assessed as delta-lag time at 0.10 uM by spectrophotometric analysis; format: functional
Homo sapiens [10] = species on record: Homo sapiens; experiment: Antioxidant activity against CuSO4-induced human LDL oxidation assessed as increase in lag time at 0.50 uM by spectrophotometric analysis; format: functional
Homo sapiens [11] = species on record: Homo sapiens; experiment: Antioxidant activity against CuSO4-induced human LDL oxidation assessed as increase in lag time at 1 uM by spectrophotometric analysis; format: functional
Homo sapiens [12] = species on record: Homo sapiens; experiment: Antioxidant activity against CuSO4-induced human LDL oxidation assessed as increase in lag time at 0.10 uM by spectrophotometric analysis; format: functional
Homo sapiens [13] = species on record: Homo sapiens; experiment: Antioxidant activity against CuSO4-induced human LDL oxidation assessed as inhibition of rate of conjugate diene formation at 0.50 uM by spectrophotometric analysis; format: functional
Homo sapiens [14] = species on record: Homo sapiens; experiment: Antioxidant activity against CuSO4-induced human LDL oxidation assessed as inhibition of rate of conjugate diene formation at 0.10 uM by spectrophotometric analysis; format: functional
[15] = target: T1, Squalene synthase (Rattus norvegicus) (UniProt Q02769); experiment: (§1) Inhibition of squalene synthase in rat liver microsomes assessed as decrease in conversion of [3H]FPP to squalene
T1 sequence (whole entry): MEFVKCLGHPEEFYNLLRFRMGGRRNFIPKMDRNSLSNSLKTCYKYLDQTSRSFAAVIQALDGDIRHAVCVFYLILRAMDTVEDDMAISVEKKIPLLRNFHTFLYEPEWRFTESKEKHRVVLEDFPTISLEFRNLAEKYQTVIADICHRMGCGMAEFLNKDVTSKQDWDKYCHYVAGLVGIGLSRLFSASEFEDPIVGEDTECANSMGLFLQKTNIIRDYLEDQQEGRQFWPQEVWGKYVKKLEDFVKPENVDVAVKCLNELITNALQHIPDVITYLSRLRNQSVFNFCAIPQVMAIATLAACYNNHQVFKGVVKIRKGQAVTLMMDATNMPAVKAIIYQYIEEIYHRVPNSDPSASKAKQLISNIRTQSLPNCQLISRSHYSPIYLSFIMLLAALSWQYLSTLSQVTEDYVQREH

Squalene synthase = target: T2, Squalene synthase (Rattus norvegicus, UniProt Q02769); experiment: as §1
T2 sequence (Q02769 whole entry): T1 sequence (whole entry)

[16] = target: T3, Prostaglandin G/H synthase 1 (Bos taurus) (UniProt O62664); experiment: Inhibition of bovine COX-1 assessed as PGF2-alpha formation using arachidonic acid as substrate at 20 uM by enzyme immunoassay
T3 sequence (whole entry): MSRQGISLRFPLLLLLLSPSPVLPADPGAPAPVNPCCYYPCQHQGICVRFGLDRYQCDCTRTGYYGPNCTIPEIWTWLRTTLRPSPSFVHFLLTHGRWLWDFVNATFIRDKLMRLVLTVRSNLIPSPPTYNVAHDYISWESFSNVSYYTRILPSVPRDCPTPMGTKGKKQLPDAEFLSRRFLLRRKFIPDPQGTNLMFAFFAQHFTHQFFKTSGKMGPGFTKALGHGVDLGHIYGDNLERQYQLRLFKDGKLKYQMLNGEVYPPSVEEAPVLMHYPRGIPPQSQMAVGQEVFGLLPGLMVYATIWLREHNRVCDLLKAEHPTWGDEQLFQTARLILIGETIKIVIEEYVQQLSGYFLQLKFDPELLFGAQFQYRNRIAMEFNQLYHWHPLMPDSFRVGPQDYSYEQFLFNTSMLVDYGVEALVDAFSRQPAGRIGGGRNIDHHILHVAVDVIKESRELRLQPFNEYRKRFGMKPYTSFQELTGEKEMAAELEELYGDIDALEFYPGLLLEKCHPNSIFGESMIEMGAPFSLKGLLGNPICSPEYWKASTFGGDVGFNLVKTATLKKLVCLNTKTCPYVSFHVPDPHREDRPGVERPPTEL

Glycine max = experiment: Inhibition of soybean lipoxygenase using sodium linoleate as substrate up to 100 uM measured for 6 mins
Mus musculus [17] = experiment: In vivo antiinflammatory activity in mouse assessed as decrease in carrageenan-induced paw edema at 0.30 mmol/kg, ip administered immediately after carrageenan injection measured after 3.5 hrs; format: functional
Rattus norvegicus [18] = experiment: In vivo antidyslipidemic activity against Triton WR 1339-induced hyperlipidemic Wistar rat model assessed as decrease in total cholesterol level in plasma at 56 umol/kg, ip administered as single dose 1 hr after Triton WR 1339 challenge measured after 24 hrs; format: functional
Rattus norvegicus [19] = experiment: In vivo antidyslipidemic activity against Triton WR 1339-induced hyperlipidemic Wistar rat model assessed as decrease in LDL-cholesterol level in plasma at 56 umol/kg, ip administered as single dose 1 hr after Triton WR 1339 challenge measured after 24 hrs; format: functional
Rattus norvegicus [20] = experiment: In vivo antidyslipidemic activity against Triton WR 1339-induced hyperlipidemic Wistar rat model assessed as decrease in triglyceride level in plasma at 56 umol/kg, ip administered as single dose 1 hr after Triton WR 1339 challenge measured after 24 hrs; format: functional
Mus musculus [21] = experiment: Antidyslipidemic activity in high-fat diet (35.5% w/w fat) fed SKH-2 mouse assessed as decrease in total cholesterol level in plasma at 56 umol/kg, ip bid for 28 days measured on day 28; format: functional; details: SKH-2, Plasma, 672 h
Mus musculus [22] = experiment: Antidyslipidemic activity in high-fat diet (35.5% w/w fat) fed SKH-2 mouse assessed as decrease in LDL level in plasma at 56 umol/kg, ip bid for 28 days measured on day 28; format: functional; details: SKH-2, Plasma, 672 h
Mus musculus [23] = experiment: Antidyslipidemic activity in high-fat diet (35.5% w/w fat) fed SKH-2 mouse assessed as HDL level in plasma at 56 umol/kg, ip bid for 28 days measured on day 28; format: functional, organism-based
Mus musculus [24] = experiment: Antidyslipidemic activity in high-fat diet (35.5% w/w fat) fed SKH-2 mouse assessed as triglyceride level in plasma at 56 umol/kg, ip bid for 28 days measured on day 28; format: functional, organism-based
Mus musculus [25] = experiment: Antidyslipidemic activity in high-fat diet (35.5% w/w fat) fed SKH-2 mouse assessed as HDL/LDL ratio in plasma at 56 umol/kg, ip bid for 28 days measured on day 28 (reference value: 0.5 no unit); format: functional
Mus musculus [26] = experiment: In vivo antioxidant activity in high-fat diet (35.5% w/w fat) fed SKH-2 mouse assessed as reduction in malondialdehyde level in plasma at 56 umol/kg, ip bid for 28 days measured on day 28; format: functional; details: SKH-2, Plasma, 672 h
Mus musculus [27] = experiment: Effect on body weight in high-fat diet (35.5% w/w fat) fed SKH-2 mouse at 56 umol/kg, ip bid for 28 days; format: ADME, organism-based; details: in vivo, 672 h
Mus musculus [28] = experiment: Effect on food intake high-fat diet fed SKH-2 mouse at 56 umol/kg, ip bid for 28 days; format: ADME, organism-based; details: in vivo, 672 h
Mus musculus [29] = experiment: Effect on blood glucose level in high-fat diet (35.5% w/w fat) fed SKH-2 mouse at 56 umol/kg, ip bid for 28 days; format: ADME, organism-based; details: in vivo, 672 h
Mus musculus [30] = experiment: Toxicity in high-fat diet (35.5% w/w fat) fed SKH-2 mouse at 56 umol/kg, ip bid for 28 days by macroscopic analysis; format: organism-based; details: in vivo, 672 h

**Q.** With `CN1CC(O)(c2ccc3c(c2)Nc2ccccc2S3)OC2CCCCC21` (racemic) as the compound, how does the pIC50 [1] read?
**A.** 6.03

**Q.** And the Activity [2]?
**A.** Active

**Q.** And the pIC50 [3]?
**A.** 3.73

**Q.** What about the Activity (Homo sapiens [4]) of the same compound?
**A.** Dose-dependent effect

**Q.** What about the inhibition (Homo sapiens [5]) of the same compound?
**A.** 100%

**Q.** And the TIME (Homo sapiens [6])?
**A.** 1.82 h

**Q.** What about the TIME (Homo sapiens [7]) of the same compound?
**A.** 3.33 h

**Q.** And the TIME (Homo sapiens [8])?
**A.** 1.3 h

**Q.** What about the TIME (Homo sapiens [9]) of the same compound?
**A.** -0.217 h

**Q.** What about the Activity (Homo sapiens [10]) of the same compound?
**A.** 64%

**Q.** What about the Activity (Homo sapiens [11]) of the same compound?
**A.** 100%

**Q.** What about the Activity (Homo sapiens [12]) of the same compound?
**A.** 0%

**Q.** And the inhibition (Homo sapiens [13])?
**A.** 41%

**Q.** What about the inhibition (Homo sapiens [14]) of the same compound?
**A.** 0%

**Q.** And the inhibition [15]?
**A.** Dose-dependent effect

**Q.** What about the pIC50 (Squalene synthase) of the same compound?
**A.** 4.92

**Q.** What about the inhibition [16] of the same compound?
**A.** 55%

**Q.** And the inhibition (Glycine max)?
**A.** inactive

**Q.** What about the inhibition in vivo at 300 µmol/kg (Mus musculus [17]) of the same compound?
**A.** 41%

**Q.** What about the inhibition in vivo at 56 µmol/kg (Rattus norvegicus [18]) of the same compound?
**A.** 50%

**Q.** What about the inhibition in vivo at 56 µmol/kg (Rattus norvegicus [19]) of the same compound?
**A.** 68%

**Q.** What about the inhibition in vivo at 56 µmol/kg (Rattus norvegicus [20]) of the same compound?
**A.** 77%

**Q.** What about the inhibition in vivo at 56 µmol/kg (Mus musculus [21]) of the same compound?
**A.** 54%

**Q.** And the inhibition in vivo at 56 µmol/kg (Mus musculus [22])?
**A.** 76%

**Q.** What about the Activity (Mus musculus [23]) of the same compound?
**A.** inactive

**Q.** What about the Activity (Mus musculus [24]) of the same compound?
**A.** inactive

**Q.** And the Ratio (Mus musculus [25])?
**A.** 1.7

**Q.** What about the inhibition in vivo at 56 µmol/kg (Mus musculus [26]) of the same compound?
**A.** 38%

**Q.** And the Activity (Mus musculus [27])?
**A.** Non-toxic

**Q.** What about the Activity (Mus musculus [28]) of the same compound?
**A.** Non-toxic

**Q.** What about the Activity (Mus musculus [29]) of the same compound?
**A.** Non-toxic

**Q.** What about the Activity (Mus musculus [30]) of the same compound?
**A.** Non-toxic
